This passage reports IC50 results from BindingDB's records for patent US20240150287 (Hangzhou Apeloa Medicine Research Institute Co., 2024).

As a reminder, the pIC50 is the IC50 on a negative log10 scale, so that one unit is a factor of ten.

pIC50: −log10 of the molar value. “And” between values parts separate entries of the source, which are not always exact repeats. Identical values can stand only once.

In this test the target is T1, Mucosal addressin cell adhesion molecule 1/Integrin alpha-4/beta-7 (Homo sapiens, UniProt P13612+P26010+Q13477).
T1 sequence (P13612 whole entry): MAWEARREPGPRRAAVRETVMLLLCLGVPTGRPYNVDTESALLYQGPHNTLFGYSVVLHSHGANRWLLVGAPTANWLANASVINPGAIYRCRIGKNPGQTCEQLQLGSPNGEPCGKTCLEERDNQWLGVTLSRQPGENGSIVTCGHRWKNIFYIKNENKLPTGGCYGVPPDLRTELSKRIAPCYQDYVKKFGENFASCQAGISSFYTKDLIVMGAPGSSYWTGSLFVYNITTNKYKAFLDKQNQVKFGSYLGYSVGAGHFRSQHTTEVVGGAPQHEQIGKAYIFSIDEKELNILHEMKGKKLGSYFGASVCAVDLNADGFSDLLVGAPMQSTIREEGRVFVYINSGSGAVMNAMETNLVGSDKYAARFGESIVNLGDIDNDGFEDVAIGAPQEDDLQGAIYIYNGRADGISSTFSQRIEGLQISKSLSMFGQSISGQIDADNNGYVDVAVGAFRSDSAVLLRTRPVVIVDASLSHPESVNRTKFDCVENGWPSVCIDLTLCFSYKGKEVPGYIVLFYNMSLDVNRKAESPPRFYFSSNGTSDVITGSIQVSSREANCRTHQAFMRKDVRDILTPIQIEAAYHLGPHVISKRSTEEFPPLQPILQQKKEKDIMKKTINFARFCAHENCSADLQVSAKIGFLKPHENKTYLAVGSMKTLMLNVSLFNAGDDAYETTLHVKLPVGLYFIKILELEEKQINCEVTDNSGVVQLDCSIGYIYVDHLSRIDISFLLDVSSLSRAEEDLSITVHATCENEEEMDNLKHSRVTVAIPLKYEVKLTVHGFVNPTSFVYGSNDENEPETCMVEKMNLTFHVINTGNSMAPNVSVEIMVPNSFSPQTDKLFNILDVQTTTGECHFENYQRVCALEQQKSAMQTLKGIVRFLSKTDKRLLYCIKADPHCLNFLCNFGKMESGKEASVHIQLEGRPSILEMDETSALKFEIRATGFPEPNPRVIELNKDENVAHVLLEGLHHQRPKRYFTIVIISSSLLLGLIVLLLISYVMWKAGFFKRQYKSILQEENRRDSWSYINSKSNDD
T1 sequence (P26010 whole entry): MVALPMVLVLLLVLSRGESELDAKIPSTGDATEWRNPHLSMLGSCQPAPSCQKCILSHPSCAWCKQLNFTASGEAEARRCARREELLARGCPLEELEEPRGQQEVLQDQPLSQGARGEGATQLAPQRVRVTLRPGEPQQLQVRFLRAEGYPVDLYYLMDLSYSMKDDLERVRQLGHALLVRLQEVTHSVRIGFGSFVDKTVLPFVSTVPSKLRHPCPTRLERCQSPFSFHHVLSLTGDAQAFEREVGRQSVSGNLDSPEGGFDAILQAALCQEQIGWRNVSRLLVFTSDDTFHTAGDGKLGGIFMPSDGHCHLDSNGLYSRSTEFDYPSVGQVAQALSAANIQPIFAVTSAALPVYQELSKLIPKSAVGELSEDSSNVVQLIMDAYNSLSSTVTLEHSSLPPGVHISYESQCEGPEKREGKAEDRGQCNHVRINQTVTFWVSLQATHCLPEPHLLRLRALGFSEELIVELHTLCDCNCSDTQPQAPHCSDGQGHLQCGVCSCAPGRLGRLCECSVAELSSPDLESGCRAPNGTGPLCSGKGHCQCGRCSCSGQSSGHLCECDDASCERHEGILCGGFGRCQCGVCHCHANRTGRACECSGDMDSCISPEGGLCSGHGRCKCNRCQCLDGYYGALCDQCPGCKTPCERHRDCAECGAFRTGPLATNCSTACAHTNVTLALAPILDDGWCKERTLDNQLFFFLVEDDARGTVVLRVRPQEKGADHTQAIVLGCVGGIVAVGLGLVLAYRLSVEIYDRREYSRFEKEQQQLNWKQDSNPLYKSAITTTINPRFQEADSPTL
T1 sequence (Q13477 whole entry): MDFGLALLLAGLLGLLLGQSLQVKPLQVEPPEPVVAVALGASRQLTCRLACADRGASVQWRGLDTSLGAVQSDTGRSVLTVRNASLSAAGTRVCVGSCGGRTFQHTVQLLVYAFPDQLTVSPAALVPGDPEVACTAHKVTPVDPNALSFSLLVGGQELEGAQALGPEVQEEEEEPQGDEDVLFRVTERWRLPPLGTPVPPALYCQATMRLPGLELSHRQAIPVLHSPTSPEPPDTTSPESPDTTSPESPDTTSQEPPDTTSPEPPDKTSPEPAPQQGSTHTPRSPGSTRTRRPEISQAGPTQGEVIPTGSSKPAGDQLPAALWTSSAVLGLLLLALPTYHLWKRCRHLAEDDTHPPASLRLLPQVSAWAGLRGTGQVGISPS
The test is described as follows: BINDING INHIBITION ACTIVITY EVALUATION TEST. Here is the method:
Coat the 96-well microplate (Costar) with 50 μL of recombinant human MAdCAM-1 (R&D Systems) solution per well, and incubate overnight (12-18 hours) at 4° C. Wash three times with 150 μL of TBS buffer per well. Block plate with 150 μL per well with blocking buffer for 1 h at 37° C. Wash three times with 150 μL of TBS buffer per well. Dilute the recombinant human integrin α4β7 (R&D Systems) with TBS buffer containing 0.1% bovine serum albumin (BSA), then add to the 96 well plate with 50 μL per well. Add 1 μL of test compound or DMSO, cover, incubate at room temperature for 2 h, wash three times with 150 μL of TBS buffer per well. Dilute the anti-β7 antibody (R&D Systems) with 0.1% BSA TBS buffer, then add to the 96 well plate with 50 μL per well, cover, incubate at room temperature for 1 h, wash three times with 150 μL of TBS buffer per well. Add 50 μL of streptavidin-HRP (R&D Systems) per well, incubate at room temperature for 20 min, wash three times with 150 μL of TBS buffer per well. Add 50 μL of TMB substrate solution (Sigma) per well, incubate at room temperature for 5-30 min, and add 25 μL of stop solution per well to stop the reaction. Finally, measure absorbance at 450 nm with microplate reader (SpectraMax 340PC. Molecular Devices). Repeat the test to find the binding rate […] at each concentration when the absorbance of the well without the test substance is used as 100%, and calculate the concentration IC50 that causes 50% binding inhibition.
In the case of `COC(=O)[C@H](Cc1ccc(-n2c(=O)n(C)c3ccc(F)c(F)c32)cc1)NC(c1ccccc1)(c1ccccc1)c1ccccc1` [US20240150287, Example 33], the pIC50 is 8.57.
Compound `COC(=O)[C@H](Cc1ccc(-n2c(=O)n(C)c3cc(N(C)C)ccc32)cc1)NC(c1ccccc1)(c1ccccc1)c1ccccc1` [US20240150287, Example 37] showed a pIC50 of 8.29.
For `COC(=O)[C@H](Cc1ccc(-n2c(=O)n(C)c3cccc(OC)c32)cc1)NC(c1ccccc1)(c1ccccc1)c1ccccc1` [US20240150287, Example 35], the pIC50 is 9.35.
Compound `COC(=O)[C@H](Cc1ccc(N2C(=O)C3(CC3)c3cccc(OC)c32)cc1)NC(c1ccccc1)(c1ccccc1)c1ccccc1` [US20240150287, Example 3] had a pIC50 of 8.26.
`COC(=O)[C@H](Cc1ccc(N2C(=O)C3(CC3)c3cccc(Cl)c32)cc1)NC(c1ccccc1)(c1ccccc1)c1ccccc1` [US20240150287, Example 2] gave a negative logarithm of the IC50 (pIC50) of 8.59.
As to `COC(=O)[C@H](Cc1ccc(N2C(=O)C3(CC3)c3cccc(Cl)c32)cc1)NC(=O)c1c(Cl)cc(Cl)cc1Cl` [US20240150287, Example 17], the pIC50 was 7.19.
With `COC(=O)[C@H](Cc1ccc(N2C(=O)C3(CC3)c3cc(F)c(F)cc32)cc1)NC(c1ccccc1)(c1ccccc1)c1ccccc1` [US20240150287, Example 1], the pIC50 was 7.84.
`COC(=O)[C@H](Cc1ccc(N2C(=O)C3(CCOCC3)c3cccc(Cl)c32)cc1)NC(c1ccccc1)(c1ccccc1)c1ccccc1` [US20240150287, Example 7] gave a negative-log IC50 (pIC50) of 7.79.
`COC(=O)[C@H](Cc1ccc(N2C(=O)C3(CC3)c3ccccc32)cc1)NC(c1ccccc1)(c1ccccc1)c1ccccc1` [US20240150287, Example 6]: the pIC50 is 8.24.
As to `COC(=O)[C@H](Cc1ccc(-n2c(=O)n(C)c3cccc(F)c32)cc1)NC(c1ccccc1)(c1ccccc1)c1ccccc1` [US20240150287, Example 30], the pIC50 was 8.74.
For `COC(=O)[C@H](Cc1ccc(N2C(=O)C3(CC3)c3cccc(Cl)c32)cc1)NC(=O)c1c(Cl)cc(N2CCOCC2)cc1Cl` [US20240150287, Example 19], the negative logarithm of the IC50 (pIC50) is 7.94. Compared with the last compound, the pIC50 is 0.80 log units lower.
In turn, `COC(=O)[C@H](Cc1ccc(N2C(=O)C3(CC3)c3cc(F)c(N(C)C)cc32)cc1)NC(c1ccccc1)(c1ccccc1)c1ccccc1` [US20240150287, Example 11] had a pIC50 of 8.52.
The compound `COC(=O)[C@H](Cc1ccc(N2C(=O)C3(CC3)c3cc(F)ccc32)cc1)NC(c1ccccc1)(c1ccccc1)c1ccccc1` [US20240150287, Example 9] gave a negative logarithm of the IC50 (pIC50) of 7.02.
In the case of `COC(=O)[C@H](Cc1ccc(N2C(=O)C3(CC3)c3ccc(F)c(F)c32)cc1)NC(c1ccccc1)(c1ccccc1)c1ccccc1` [US20240150287, Example 15], the negative-log IC50 (pIC50) was 8.25.
For `COC(=O)[C@H](Cc1ccc(-n2c(=O)n(C3CC3)c3ccc(Cl)cc32)cc1)NC(c1ccccc1)(c1ccccc1)c1ccccc1` [US20240150287, Example 24] the value was 8.25; for `COC(=O)[C@H](Cc1ccc(-n2c(=O)n(C3CCN(C)CC3)c3cccc(Cl)c32)cc1)NC(c1ccccc1)(c1ccccc1)c1ccccc1` [US20240150287, Example 29], 7.74; for `COC(=O)[C@H](Cc1ccc(N2C(=O)C3(CC3)c3cccnc32)cc1)NC(c1ccccc1)(c1ccccc1)c1ccccc1` [US20240150287, Example 16], 9.12.
The result for `COC(=O)[C@H](Cc1ccc(-n2c(=O)n(C)c3ccc(N(C)C)cc32)cc1)NC(c1ccccc1)(c1ccccc1)c1ccccc1` [US20240150287, Example 36] reads 8.82.
For `COC(=O)[C@H](Cc1ccc(N2C(=O)C3(CC3)c3ccc(F)cc32)cc1)NC(c1ccccc1)(c1ccccc1)c1ccccc1` [US20240150287, Example 4], the pIC50 was 8.60 and 8.10.
Compound `COC(=O)[C@H](Cc1ccc(-n2c(=O)n(C)c3cccc(Cl)c32)cc1)NC(=O)c1c(Cl)cc(Cl)cc1Cl` [US20240150287, Example 38] showed a pIC50 of 7.55.
As for `COC(=O)[C@H](Cc1ccc(-n2c(=O)n(C3CC3)c3cccc(F)c32)cc1)NC(c1ccccc1)(c1ccccc1)c1ccccc1` [US20240150287, Example 27], the negative-log IC50 (pIC50) is 8.06.
`COC(=O)[C@H](Cc1ccc(-n2c(=O)n(C)c3c(F)c(F)ccc32)cc1)NC(c1ccccc1)(c1ccccc1)c1ccccc1` [US20240150287, Example 34] gave a pIC50 of 7.98.
`COC(=O)[C@H](Cc1ccc(N2C(=O)C3(CC3)c3cccc(F)c32)cc1)NC(c1ccccc1)(c1ccccc1)c1ccccc1` [US20240150287, Example 5]: the pIC50 was 8.21.
The compound `COC(=O)[C@H](Cc1ccc(N2C(=O)C3(CC3)c3cccc(Cl)c32)cc1)NC(=O)c1c(Cl)cc(N2CC3CC2CO3)cc1Cl` (some centres undefined) [US20240150287, Example 20] gave a pIC50 of 8.38.
Compound `COC(=O)[C@H](Cc1ccc(-n2c(=O)n(C)c3cccc(Cl)c32)cc1)NC(=O)c1c(Cl)cc(N2CCOCC2)cc1Cl` [US20240150287, Example 39] showed a negative logarithm of the IC50 (pIC50) of 8.44.
The result for `COC(=O)[C@H](Cc1ccc(-n2c(=S)n(C)c3cccc(Cl)c32)cc1)NC(c1ccccc1)(c1ccccc1)c1ccccc1` [US20240150287, Example 26] reads 6.80.
`COC(=O)[C@H](Cc1ccc(-n2c(=O)n(C3CC3)c3cccc(Cl)c32)cc1)NC(c1ccccc1)(c1ccccc1)c1ccccc1` [US20240150287, Example 25] gave a pIC50 of 8.12. This pIC50 lies 1.32 log units higher than the previous one.
The result for `COC(=O)[C@H](Cc1ccc(-n2c(=O)n(C)c3cc(Cl)c(Cl)cc32)cc1)NC(c1ccccc1)(c1ccccc1)c1ccccc1` [US20240150287, Example 32] reads 8.38; that for `COC(=O)[C@H](Cc1ccc(N2C(=O)C3(CC3)c3cc(F)c(Cl)cc32)cc1)NC(c1ccccc1)(c1ccccc1)c1ccccc1` [US20240150287, Example 8], 7.75.
